{"source": "patent US20220265817A1", "about": "“THERAPEUTIC COMPOSITIONS AND METHODS FOR TREATING HEPATITIS B” (priority 2017, published 2022)", "key": {"HBV genome": {"system": "HBV genome", "assay": "siRNA IC50 (Table A)", "design": "species or system Hepatitis B virus"}, "[1]": {"system": "HBV cccDNA-dependent precore RNA in DESHAe82 cells", "assay": "DESHAe82 / DE19 cell culture system, cccDNA-derived precore RNA by qRT-PCR, MacSynergy II", "type": "cell-based, Hepatitis B virus", "details": "ETV μM: 0.01, 0.0032, 0.001, 0.0003, 0.0001, 3E−05, 0", "experimental": "In vitro combination studies were conducted using a modification of the assay system described in Cai et al (Antimicrobial Agents Chemotherapy, 2012. Vol 56(8):4277-88). A previously developed HepDE19 cell culture system (Guo et al. J. Virology (2007) 81(22): 12472-12484) supports HBV DNA replication and cccDNA formation in a tetracycline (Tet)-regulated manner, and produces a detectable reporter molecule which is dependent upon the production and maintenance of cccDNA.\nIn the HepDE19 cell culture system, the reporters are the precore RNA and its cognate protein product, the secreted HBV “e antigen” (HBeAg). In HepDE19 cells, precore RNA and HBeAg are only produced from the cccDNA circular template, because the ORF of HBeAg and its 5′ RNA leader are separated between the opposite ends of the integrated viral genome, and only become contiguous with the formation of cccDNA. Although an assay based on the HepDE19 cell culture system is effective for determining activity, the results of high throughput screening may be complicated because the HBeAg ELISA cross reacts with a viral HBeAg homologue, which is the core antigen (HBcAg) expressed largely in a cccDNA-independent fashion in HepDE19 cells. To overcome this complication, an alternative cell culture system (designated herein as DESHAe82 cell culture system and described in PCT/EP/2015/06838) has been developed which includes an in-frame HA epitope tag in the N-terminal coding sequence of HBeAg in the transgene of DESHAe82 cells, without disrupting any cis-element critical for HBV replication, cccDNA transcription, and HBeAg secretion.\nA chemiluminescence ELISA assay (CLIA) for the detection of HA-tagged HBeAg with HA antibody serving as capture antibody and […] has been developed, eliminating the contaminating signal from HBcAg. […] In addition, a protocol for quantitative reverse transcription and polymerase chain reaction (qRT-PCR) that is specific for detection of precore RNA in either DE19 or DESHAe82 cells was developed and is also used for the detection of the cccDNA-dependent mRNA (precore RNA) that is translated to produce HBeAg or HA-HBeAg.\nTo test the compound combinations, DESHAe82 or DE19 cells (as indicated in examples) were plated in 96 well tissue-culture treated microtiter plates in DMEM/F12 medium supplemented with 10% fetal bovine serum+1% penicillin-streptomycin with Tet, and incubated in a humidified incubator at 37° C. and 5% CO2 overnight. […] The two inhibitors were tested both singly as well as in combinations in a checkerboard fashion such that each test concentration of inhibitor A was combined with each test concentration of inhibitor B to determine their combination effects on inhibition of cccDNA formation and expression. Untreated negative control samples (0.5% DMSO or media only) were included on each plate in multiple wells. Following a 9 day-incubation, media was removed and cells were subjected to RNA extraction to measure the cccDNA-dependent precore mRNA level. Total cellular RNAs were extracted using a 96-well format total RNA isolation kit ([…]-NAGEL, Cat. 740466.4) by following the instruction of manufacturer (vacuum manifold processing, two more extra washes of Buffer RA4). RNA samples were eluted in RNAase-free water. Quantitative real-time RT-PCR was performed with a Roche LightCycler480 and RNA Master Hydrolysis probe (Catalog number 04991885001, Roche) using primers and conditions for specific detection of cccDNA-dependent precore RNA. GAPDH mRNA levels were also detected by standard methods and used to normalize the precore RNA levels."}}, "note": "[UNA] = unlocked nucleic acid; m = 2'-O-methyl; r = 2'-OH (RNA)"}
{"compound": "8m: siRNA duplex SEQ ID NO: 15 and 16 targeting the HBV genome (chain 1 GCUCAGUUUACUAGUGCCAUU; chain 2 UGGCACUAGUAAACUGAGCUU; chain 1: sugars from the 5' end [UNA]rmrrmrrrrrmrmrrrrr[UNA][UNA], backbone not given here; chain 2: sugars from the 5' end r14 m1 r4 [UNA]2, backbone not given here) [Compound 8m]", "values": [{"measurement": "IC50", "setting": "HBV genome", "result": 0.24, "unit": "nM"}]}
{"compound": "9m: siRNA duplex SEQ ID NO: 17 and 18 targeting the HBV genome (chain 1 AGGUAUGUUGCCCGUUUGUUU; chain 2 ACAAACGGGCAACAUACCUUU; chain 1: sugars from the 5' end [UNA]mrmrrrmrrrrrmrmrrr[UNA][UNA], backbone not given here; chain 2: sugars from the 5' end rrrrrrmrrrrrrrmrrrm[UNA][UNA], backbone not given here) [Compound 9m]", "values": [{"measurement": "IC50", "setting": "HBV genome", "result": 0.13, "unit": "nM"}]}
{"compound": "10m: siRNA duplex SEQ ID NO: 19 and 20 targeting the HBV genome (chain 1 GCCGAUCCAUACUGCGGAAUU; chain 2 UUCCGCAGUAUGGAUCGGCUU; chain 1: sugars from the 5' end [UNA]rrmrmrrrrrrmmrmmrr[UNA][UNA], backbone not given here; chain 2: sugars from the 5' end rrrrrrrmrrrrmrrrrmr[UNA][UNA], backbone not given here) [Compound 10m]", "values": [{"measurement": "IC50", "setting": "HBV genome", "result": 0.34, "unit": "nM"}]}
{"compound": "11m: siRNA duplex SEQ ID NO: 21 and 22 targeting the HBV genome (chain 1 GCCGAUCCAUACUGCGGAAUU; chain 2 UUCCGCAGUAUGGAUCGGCUU; chain 1: sugars from the 5' end [UNA]rrmrmrrrrrrmmrmmrrr[UNA], backbone not given here; chain 2: sugars from the 5' end rrrrrrrmrrrrmrrrrmrrr, backbone not given here) [Compound 11m]", "values": [{"measurement": "IC50", "setting": "HBV genome", "result": 0.31, "unit": "nM"}]}
{"compound": "12m: siRNA duplex SEQ ID NO: 23 and 24 targeting the HBV genome (chain 1 GCCGAUCCAUACUGCGGAAUU; chain 2 UUCCGCAGUAUGGAUCGGCUU; chain 1: sugars from the 5' end [UNA]rrmrmrrrrrrmmrrmrrr[UNA], backbone not given here; chain 2: sugars from the 5' end rrrrrrrmrrrrmrrrrmrrr, backbone not given here) [Compound 12m]", "values": [{"measurement": "IC50", "setting": "HBV genome", "result": 0.16, "unit": "nM"}]}
{"compound": "13m: siRNA duplex SEQ ID NO: 25 and 26 targeting the HBV genome (chain 1 GCCGAUCCAUACUGCGGAAUU; chain 2 UUCCGCAGUAUGGAUCGGCUU; chain 1: sugars from the 5' end [UNA]rrmrmrrrrrrmmrrmrr[UNA][UNA], backbone not given here; chain 2: sugars from the 5' end rrrrrrrmrrrrmrrrrmr[UNA][UNA], backbone not given here) [Compound 13m]", "values": [{"measurement": "IC50", "setting": "HBV genome", "result": 0.2, "unit": "nM"}]}
{"compound": "14m: siRNA duplex SEQ ID NO: 27 and 28 targeting the HBV genome (chain 1 GCUCAGUUUACUAGUGCCAUU; chain 2 UGGCACUAGUAAACUGAGCUU; chain 1: sugars from the 5' end [UNA]rmrrmrrrrrmrmrrrrrr[UNA], backbone not given here; chain 2: sugars from the 5' end r14 m1 r6, backbone not given here) [Compound 14m]", "values": [{"measurement": "IC50", "setting": "HBV genome", "result": 0.16, "unit": "nM"}]}
{"compound": "15m: siRNA duplex SEQ ID NO: 29 and 30 targeting the HBV genome (chain 1 CUGGCUCAGUUUACUAGUGUU; chain 2 CACUAGUAAACUGAGCCAGUU; chain 1: sugars from the 5' end [UNA]mmrrmrrrrrmrrrrrrr[UNA][UNA], backbone not given here; chain 2: sugars from the 5' end r14 m1 r4 [UNA]2, backbone not given here) [Compound 15m]", "values": [{"measurement": "IC50", "setting": "HBV genome", "result": 0.17, "unit": "nM"}]}
{"compound": "C[C@@H](NS(=O)(=O)c1ccc(F)c(C(=O)Nc2ccc(F)c(F)c2)c1)c1cncs1", "note": "[Compound 4]", "values": [{"measurement": "Average percent inhibition versus negative control (precore RNA)", "setting": "[1]; Compound 4 0.032 μM", "result": "−49.48", "unit": "%"}, {"measurement": "Average percent inhibition versus negative control (precore RNA)", "setting": "[1]; Compound 4 0.100 μM", "result": 66.78, "unit": "%"}, {"measurement": "Average percent inhibition versus negative control (precore RNA)", "setting": "[1]; Compound 4 0.317 μM", "result": 94.67, "unit": "%"}, {"measurement": "Average percent inhibition versus negative control (precore RNA)", "setting": "[1]; Compound 4 1.001 μM", "result": 93.92, "unit": "%"}, {"measurement": "Average percent inhibition versus negative control (precore RNA)", "setting": "[1]; Compound 4 3.165 μM", "result": 97.88, "unit": "%"}, {"measurement": "Average percent inhibition versus negative control (precore RNA)", "setting": "[1]; Compound 4 10 μM", "result": 97.53, "unit": "%"}]}
